According to ChEMBL document CHEMBL1201862, “PubChem BioAssay data set” (2004):
Active and inactive are the calls of the source.

Key:
DNA topoisomerase = DNA topoisomerase (Yersinia pestis, UniProt A0A2S9PM60); test: Y. pestis Topo-I inhibitors, cleavage product readout, dose response, biochemical, cherry-pick (AID 588525)
INS1 = test: beta cell apoptosis inhibitors, cytokine rescue, dose response, luminescence, retest (AID 449756); assay type: functional, cell-based; conditions: Rattus norvegicus;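 further: cell death triggered by IL-1 beta plus TNF-alpha plus IFN-gamma mixture; protective hits raise ATP signal compared with cytokine alone wells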
[1] = growth suppression of beta-catenin-knockout colon cells, dose response, cell-based, HCT116, human colon tumor (AID 1045); assay type: functional;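 further: HCT116 colon tumor cells with beta catenin knocked out; cells exposed to compound for 60 hours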
[2] = biological target: T1, Ubiquitin-conjugating enzyme E2 N (Homo sapiens, UniProt P61088); assay type: functional;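 further: Dose-response confirmation in a TR-FRET assay detecting UBC13-driven polyubiquitin chain formation, inhibition measured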
T1 sequence (P61088 whole entry): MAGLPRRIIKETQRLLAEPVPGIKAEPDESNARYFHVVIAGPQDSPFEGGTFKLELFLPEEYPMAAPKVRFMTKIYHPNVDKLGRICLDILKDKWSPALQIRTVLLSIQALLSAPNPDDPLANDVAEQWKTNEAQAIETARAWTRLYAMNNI

Cytochrome P450 2C19 = Cytochrome P450 2C19 (Homo sapiens, UniProt P33261); test: Cytochrome panel assay with activity outcomes. Panel member name: p450-cyp2c19 Compounds with AC50 equal or less than 10 uM are considered active; assay type: functional; conditions: read-out: AC50
Chain of Cytochrome P450 2C19 (P33261 whole entry): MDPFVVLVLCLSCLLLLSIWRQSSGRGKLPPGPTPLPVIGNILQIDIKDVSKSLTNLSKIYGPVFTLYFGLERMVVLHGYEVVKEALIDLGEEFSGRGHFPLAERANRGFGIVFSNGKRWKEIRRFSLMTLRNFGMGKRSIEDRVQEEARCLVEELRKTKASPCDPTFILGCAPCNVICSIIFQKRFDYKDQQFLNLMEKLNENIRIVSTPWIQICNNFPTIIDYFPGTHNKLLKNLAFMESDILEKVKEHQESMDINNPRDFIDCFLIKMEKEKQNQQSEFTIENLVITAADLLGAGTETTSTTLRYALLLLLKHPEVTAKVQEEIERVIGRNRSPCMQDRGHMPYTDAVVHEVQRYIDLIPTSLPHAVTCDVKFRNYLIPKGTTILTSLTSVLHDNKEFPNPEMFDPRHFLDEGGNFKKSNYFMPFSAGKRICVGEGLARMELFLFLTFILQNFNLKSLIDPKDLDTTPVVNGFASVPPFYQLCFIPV

[3] = inhibitors of firefly luciferase expression or activity, dose response, H4 neuroglioma cells, luminescence (AID 1990); assay type: functional, cell-based
[4] = inhibitors of SNCA 5'UTR-driven reporter translation, confirmation, H4 neuroglioma cells, luminescence (AID 1988); assay type: functional, cell-based
Cytochrome P450 2C9 = Cytochrome P450 2C9 (Homo sapiens, UniProt P11712)
Chain of Cytochrome P450 2C9 (P11712 whole entry): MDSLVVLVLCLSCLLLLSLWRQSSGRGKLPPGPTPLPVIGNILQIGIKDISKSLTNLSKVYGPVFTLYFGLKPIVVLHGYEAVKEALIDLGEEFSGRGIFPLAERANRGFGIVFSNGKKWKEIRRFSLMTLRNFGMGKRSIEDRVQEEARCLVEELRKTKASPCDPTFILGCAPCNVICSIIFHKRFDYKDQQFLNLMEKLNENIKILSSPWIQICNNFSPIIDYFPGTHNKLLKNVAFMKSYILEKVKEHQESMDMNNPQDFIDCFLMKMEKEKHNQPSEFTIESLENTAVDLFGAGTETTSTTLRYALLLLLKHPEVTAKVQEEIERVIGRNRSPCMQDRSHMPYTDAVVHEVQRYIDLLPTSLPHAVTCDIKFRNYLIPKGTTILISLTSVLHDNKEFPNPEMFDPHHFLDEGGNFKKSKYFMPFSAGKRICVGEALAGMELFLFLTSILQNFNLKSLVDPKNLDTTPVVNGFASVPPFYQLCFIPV

[5] = control 3'UTR Renilla luciferase suppression, dose response, counter-screen for Shn3 inhibitor project, cell-based, Clone20-Shn3RL, cherry-picked (AID 624133); assay type: functional
[6] = Luminescence Cell-Based Dose Response HTS to Identify Inhibitors of 5'UTR Stem-Loop Driven Prion Protein mRNA Translation in H4 Neuroglioblastoma Cells. [Related pubchem assays: 1827 (Project Summary), 1813 (Primary HTS)]; assay type: functional
[7] = biological target: Beta-2 adrenergic receptor (Homo sapiens, UniProt P07550); test: beta2AR agonists driving receptor internalization, dose response, cell-based, FAP fluorogen, flow cytometry, cherry pick 1 (AID 588763); assay type: functional
Chain of Beta-2 adrenergic receptor (P07550 whole entry): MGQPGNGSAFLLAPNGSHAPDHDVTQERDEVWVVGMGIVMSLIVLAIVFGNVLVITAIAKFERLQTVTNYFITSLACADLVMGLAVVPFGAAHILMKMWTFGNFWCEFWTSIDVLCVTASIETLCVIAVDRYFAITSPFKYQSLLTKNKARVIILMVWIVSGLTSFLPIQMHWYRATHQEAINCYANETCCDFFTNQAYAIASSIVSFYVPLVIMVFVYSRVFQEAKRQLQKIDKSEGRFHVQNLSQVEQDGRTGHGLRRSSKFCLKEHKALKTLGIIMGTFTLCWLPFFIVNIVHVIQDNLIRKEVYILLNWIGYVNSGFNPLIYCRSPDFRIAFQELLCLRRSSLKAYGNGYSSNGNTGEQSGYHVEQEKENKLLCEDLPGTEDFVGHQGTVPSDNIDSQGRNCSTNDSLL

[8] = Shn3 3'UTR reporter inhibitors, dose response, cell-based, Clone20 osteoblasts, firefly luciferase, cherry-picked (AID 624132); assay type: functional;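 further: firefly luciferase luminescence from reporter carrying the Shn3 3'UTR in osteoblasts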
[9] = growth suppression of PTEN-null colon cells, dose response, cell-based, HCT116 PTEN knockout (AID 1047); assay type: functional;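 further: HCT116 colon tumor cells with PTEN knocked out; cells exposed to compound for 60 hours before readout; potency for loss of cell viability measured by luminescence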
[10] = HepG2 cell cytotoxicity, dose response, cytotoxicity control for Shn3 inhibitor project, CellTiter-Glo, cherry-picked (AID 624134); assay type: functional, cell-based
Cysteine protease ATG4B = Cysteine protease ATG4B (Homo sapiens, UniProt Q9Y4P1); assay type: functional;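 further: Fluorescence-based dose-response confirmation assay measuring inhibition of ATG4B activity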
Chain of Cysteine protease ATG4B (Q9Y4P1 whole entry): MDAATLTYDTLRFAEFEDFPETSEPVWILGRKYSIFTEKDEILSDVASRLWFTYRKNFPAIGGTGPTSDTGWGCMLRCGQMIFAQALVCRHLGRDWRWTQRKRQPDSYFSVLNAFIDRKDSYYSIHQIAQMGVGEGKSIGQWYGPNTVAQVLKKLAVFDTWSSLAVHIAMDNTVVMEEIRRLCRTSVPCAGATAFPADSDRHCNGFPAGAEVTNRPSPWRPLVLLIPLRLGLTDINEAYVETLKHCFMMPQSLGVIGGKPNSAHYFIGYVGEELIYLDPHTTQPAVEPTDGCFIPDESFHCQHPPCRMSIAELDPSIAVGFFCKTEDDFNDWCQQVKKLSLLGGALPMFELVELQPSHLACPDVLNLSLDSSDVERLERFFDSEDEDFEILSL

Phospholipase A2 = Phospholipase A2 (Homo sapiens, UniProt P04054); assay type: functional;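 further: confirmatory dose-response counterscreen on phospholipase A2, testing hits that came from an ultra-high-throughput screen for ATG4B inhibitors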
Chain of Phospholipase A2 (P04054 whole entry): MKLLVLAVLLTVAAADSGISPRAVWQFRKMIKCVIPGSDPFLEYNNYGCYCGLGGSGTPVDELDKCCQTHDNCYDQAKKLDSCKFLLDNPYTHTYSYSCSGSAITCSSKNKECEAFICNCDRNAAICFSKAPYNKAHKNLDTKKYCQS

[11] = biological target: Potassium voltage-gated channel subfamily KQT member 2/member 3 (Rattus norvegicus, UniProt O88943+O88944); test: Mode of action assay-Dose response assay for KCNQ2 activators in the KCNQ2/KCNQ3 co-expressing cells on automated patch clamp. [Related pubchem assays (depositor defined):AID2239, AID2258, AID2287]; assay type: functional
[12] = biological target: Potassium voltage-gated channel subfamily KQT member 4 (Homo sapiens, UniProt P56696); test: human KCNQ4 channel current potentiation, dose response, selectivity assay for KCNQ2 activator project, automated patch clamp, CHO cells (AID 493043); assay type: functional, cell-based
Chain of Potassium voltage-gated channel subfamily KQT member 4 (P56696 whole entry): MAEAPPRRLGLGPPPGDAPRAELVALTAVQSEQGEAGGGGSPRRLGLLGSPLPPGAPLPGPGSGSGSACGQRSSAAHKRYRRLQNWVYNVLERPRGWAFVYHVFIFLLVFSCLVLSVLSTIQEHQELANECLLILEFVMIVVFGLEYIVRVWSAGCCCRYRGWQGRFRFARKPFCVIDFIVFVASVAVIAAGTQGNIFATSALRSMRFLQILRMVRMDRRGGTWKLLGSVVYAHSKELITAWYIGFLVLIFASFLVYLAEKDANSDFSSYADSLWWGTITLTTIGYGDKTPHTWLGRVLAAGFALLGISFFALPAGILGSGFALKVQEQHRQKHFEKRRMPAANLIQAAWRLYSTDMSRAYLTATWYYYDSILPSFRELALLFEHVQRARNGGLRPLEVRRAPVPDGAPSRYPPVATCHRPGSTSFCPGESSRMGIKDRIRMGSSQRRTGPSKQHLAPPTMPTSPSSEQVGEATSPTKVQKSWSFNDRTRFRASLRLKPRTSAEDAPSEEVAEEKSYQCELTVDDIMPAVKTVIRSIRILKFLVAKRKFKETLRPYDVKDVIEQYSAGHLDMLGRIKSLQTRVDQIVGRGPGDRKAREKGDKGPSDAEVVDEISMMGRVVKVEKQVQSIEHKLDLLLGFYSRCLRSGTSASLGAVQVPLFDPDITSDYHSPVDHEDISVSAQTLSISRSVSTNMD

[13] = biological target: Potassium voltage-gated channel subfamily KQT member 2 (Rattus norvegicus, UniProt O88943); test: Mode of action assay-Dose response assay for compounds that activate KCNQ2 potassium channels on automated patch clamp. [Related pubchem assays (depositor defined):AID2239, AID2258, AID2287, AID493113]; assay type: functional
Chain of Potassium voltage-gated channel subfamily KQT member 2 (O88943 whole entry): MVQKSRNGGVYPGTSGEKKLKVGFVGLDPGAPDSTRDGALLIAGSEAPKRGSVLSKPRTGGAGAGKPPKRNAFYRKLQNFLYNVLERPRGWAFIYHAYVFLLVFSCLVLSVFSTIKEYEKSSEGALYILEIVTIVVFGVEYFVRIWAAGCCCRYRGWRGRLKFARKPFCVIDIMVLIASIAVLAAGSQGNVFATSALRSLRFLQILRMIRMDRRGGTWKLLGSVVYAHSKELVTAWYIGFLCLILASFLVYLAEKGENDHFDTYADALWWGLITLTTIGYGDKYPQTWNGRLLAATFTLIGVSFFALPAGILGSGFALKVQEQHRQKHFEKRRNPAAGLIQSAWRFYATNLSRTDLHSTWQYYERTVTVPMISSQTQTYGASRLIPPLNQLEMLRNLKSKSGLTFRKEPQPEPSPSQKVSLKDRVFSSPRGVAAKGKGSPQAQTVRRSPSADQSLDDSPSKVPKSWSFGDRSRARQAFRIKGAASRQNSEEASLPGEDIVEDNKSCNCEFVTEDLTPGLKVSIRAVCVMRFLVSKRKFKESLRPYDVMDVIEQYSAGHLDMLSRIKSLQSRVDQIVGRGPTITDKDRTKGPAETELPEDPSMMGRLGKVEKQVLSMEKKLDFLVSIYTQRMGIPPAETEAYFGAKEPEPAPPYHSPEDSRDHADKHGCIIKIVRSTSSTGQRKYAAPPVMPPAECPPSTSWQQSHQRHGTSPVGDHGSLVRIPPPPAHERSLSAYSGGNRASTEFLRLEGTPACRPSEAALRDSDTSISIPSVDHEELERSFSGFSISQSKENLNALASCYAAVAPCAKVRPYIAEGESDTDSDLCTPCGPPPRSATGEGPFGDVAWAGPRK

Chain of DNA topoisomerase (A0A2S9PM60 whole entry): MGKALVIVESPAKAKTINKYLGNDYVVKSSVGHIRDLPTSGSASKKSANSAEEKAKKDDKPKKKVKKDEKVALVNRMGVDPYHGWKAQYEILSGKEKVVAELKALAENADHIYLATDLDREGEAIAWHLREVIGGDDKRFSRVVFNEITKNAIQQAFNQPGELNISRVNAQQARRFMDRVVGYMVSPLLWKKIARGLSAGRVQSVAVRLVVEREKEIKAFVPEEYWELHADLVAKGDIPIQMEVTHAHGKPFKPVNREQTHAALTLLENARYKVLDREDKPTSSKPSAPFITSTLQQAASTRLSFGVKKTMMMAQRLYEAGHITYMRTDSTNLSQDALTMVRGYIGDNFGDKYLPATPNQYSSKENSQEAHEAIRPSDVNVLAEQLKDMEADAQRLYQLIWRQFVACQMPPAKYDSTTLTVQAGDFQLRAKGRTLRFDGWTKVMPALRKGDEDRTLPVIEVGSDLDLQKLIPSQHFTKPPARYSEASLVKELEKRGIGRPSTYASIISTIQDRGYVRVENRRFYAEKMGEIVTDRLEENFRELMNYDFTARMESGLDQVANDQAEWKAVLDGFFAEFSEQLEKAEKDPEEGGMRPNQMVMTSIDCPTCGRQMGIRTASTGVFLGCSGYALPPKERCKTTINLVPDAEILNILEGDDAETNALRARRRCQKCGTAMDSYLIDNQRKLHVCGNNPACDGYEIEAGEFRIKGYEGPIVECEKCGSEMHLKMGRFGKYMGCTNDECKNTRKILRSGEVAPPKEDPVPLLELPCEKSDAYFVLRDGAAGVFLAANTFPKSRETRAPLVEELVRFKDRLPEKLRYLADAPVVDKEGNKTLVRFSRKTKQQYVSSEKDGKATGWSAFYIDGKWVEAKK

SMILES: CC(=O)c1cccc(NC(=O)CCc2nnc3ccc(NCc4ccc5c(c4)OCO5)nn23)c1
- AC50 (DNA topoisomerase): 7.46 µM (active)

SMILES: CCOc1cc(CNCCc2ccc(S(N)(=O)=O)cc2)ccc1OCc1ccc(Cl)cc1
- AC50 (INS1): 4.78 µM (active)
- EC50 [1]: 3.56 µM (active)
- IC50 [2]: > 20 µM (inactive)
- AC50 (Cytochrome P450 2C19): 17.8 µM (inconclusive)
- EC50 [3]: 9.07 µM (active)
- EC50 [4]: 59.1 µM (active)
- AC50 (Cytochrome P450 2C9): 11.2 µM (inconclusive)
- AC50 [5]: 4.75 µM (active)
- EC50 [6]: > 120 µM (not active)
- EC50 [7]: 16.1 µM (inactive)
- AC50 [8]: 3.87 µM (active)
- EC50 [9]: 8.2 µM (active)
- AC50 [10]: 9.14 µM (active)

SMILES: O=C(CC1SC(N/N=C/c2cccs2)=NC1=O)Nc1ccc(Cl)c(Cl)c1 (centres undefined)
- IC50 (Cysteine protease ATG4B): 13.8 µM (active)
- IC50 (Phospholipase A2): 4.25 µM (active)

SMILES: Cc1cccc(C)c1NC(=O)C1CC2CCC1C2 (centres undefined)
- EC50 [11]: 4.66 µM (active)
- EC50 [12]: 13.4 µM (active)
- EC50 [13]: 3.24 µM (active)
